# Data reported in PubChem BioAssay (NCI).
#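 These data come from cells grown in 96-well plates and exposed to compound for 48 hours at five concentrations. GI50 is the concentration that inhibits growth by half. TGI marks complete inhibition of growth.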
# Experiments:
# Assay in all cases: growth of human tumour cells (NCI), 48 h
# ACHN renal = tested on: ACHN renal
# BT-549 breast = tested on: BT-549 breast
# COLO 205 colon = tested on: COLO 205 colon
# HS 578T breast = tested on: HS 578T breast
# HCT-15 colon = tested on: HCT-15 colon
# OVCAR-4 ovarian = tested on: OVCAR-4 ovarian
# MDA-MB-231 breast = tested on: MDA-MB-231 breast
# HCC-2998 colon = tested on: HCC-2998 colon
# NCI/ADR-RES ovarian = tested on: NCI/ADR-RES ovarian
# 786-0 renal = tested on: 786-0 renal
# RXF 393 renal = tested on: RXF 393 renal
# SK-MEL-2 melanoma = tested on: SK-MEL-2 melanoma
# SK-MEL-5 melanoma = tested on: SK-MEL-5 melanoma
# MDA-MB-468 breast = tested on: MDA-MB-468 breast
# SR leukemia = tested on: SR leukemia
# SW-620 colon = tested on: SW-620 colon
# KM12 colon = tested on: KM12 colon
# SF-268 CNS = tested on: SF-268 CNS
# IGROV1 ovarian = tested on: IGROV1 ovarian
# PC-3 prostate = tested on: PC-3 prostate
# HT29 colon = tested on: HT29 colon
# NCI-H460 lung = tested on: NCI-H460 lung
# HOP-62 NSCLC = tested on: HOP-62 NSCLC
# U251 CNS = tested on: U251 CNS
# NCI-H522 lung = tested on: NCI-H522 lung
# OVCAR-3 ovarian = tested on: OVCAR-3 ovarian
# SK-MEL-28 melanoma = tested on: SK-MEL-28 melanoma
# DU-145 prostate = tested on: DU-145 prostate
# SNB-19 CNS = tested on: SNB-19 CNS
# SN12C renal = tested on: SN12C renal
# T-47D breast = tested on: T-47D breast
# TK-10 renal = tested on: TK-10 renal
# RPMI-8226 leukemia = tested on: RPMI-8226 leukemia
# MALME-3M melanoma = tested on: MALME-3M melanoma
# SF-295 CNS = tested on: SF-295 CNS
# HOP-92 NSCLC = tested on: HOP-92 NSCLC
# MDA-MB-435 = tested on: MDA-MB-435
# LOX IMVI melanoma = tested on: LOX IMVI melanoma
# OVCAR-5 ovarian = tested on: OVCAR-5 ovarian
# OVCAR-8 ovarian = tested on: OVCAR-8 ovarian
# UO-31 renal = tested on: UO-31 renal
# EKVX NSCLC = tested on: EKVX NSCLC
# UACC-257 melanoma = tested on: UACC-257 melanoma
# A498 renal = tested on: A498 renal
# A549 NSCLC = tested on: A549 NSCLC
# SK-OV-3 ovarian = tested on: SK-OV-3 ovarian
# CCRF-CEM leukemia = tested on: CCRF-CEM leukemia
# CAKI-1 renal = tested on: CAKI-1 renal
# NCI-H226 lung = tested on: NCI-H226 lung
# M14 melanoma = tested on: M14 melanoma
# HL-60(TB) leukemia = tested on: HL-60(TB) leukemia
# MOLT-4 leukemia = tested on: MOLT-4 leukemia
# K-562 leukemia = tested on: K-562 leukemia
# HCT-116 colon = tested on: HCT-116 colon
# NCI-H23 lung = tested on: NCI-H23 lung
# SF-539 CNS = tested on: SF-539 CNS
# MCF7 breast = tested on: MCF7 breast
# UACC-62 melanoma = tested on: UACC-62 melanoma
compound,measurement,setting,value
COc1ccc(C(=O)/C=C/c2ccccc2Br)cc1S(N)(=O)=O,GI50,ACHN renal,1.84 µM
same,TGI,ACHN renal,3.56 µM
same,GI50,BT-549 breast,4.56 µM
same,TGI,BT-549 breast,16.8 µM
same,GI50,COLO 205 colon,2.21 µM
same,TGI,COLO 205 colon,4.49 µM
same,GI50,HS 578T breast,8.91 µM
same,TGI,HS 578T breast,72 µM
same,GI50,HCT-15 colon,1.65 µM
same,TGI,HCT-15 colon,3.45 µM
same,GI50,OVCAR-4 ovarian,3.25 µM
same,TGI,OVCAR-4 ovarian,13.1 µM
same,GI50,MDA-MB-231 breast,2.09 µM
same,TGI,MDA-MB-231 breast,4.69 µM
same,GI50,HCC-2998 colon,2.9 µM
same,TGI,HCC-2998 colon,12.4 µM
same,GI50,NCI/ADR-RES ovarian,2.28 µM
same,TGI,NCI/ADR-RES ovarian,5.67 µM
same,GI50,786-0 renal,1.81 µM
same,TGI,786-0 renal,3.66 µM
same,GI50,RXF 393 renal,1.91 µM
same,TGI,RXF 393 renal,4.38 µM
same,GI50,SK-MEL-2 melanoma,14.4 µM
same,TGI,SK-MEL-2 melanoma,28.1 µM
same,GI50,SK-MEL-5 melanoma,7.78 µM
same,TGI,SK-MEL-5 melanoma,20.5 µM
same,GI50,MDA-MB-468 breast,2.56 µM
same,TGI,MDA-MB-468 breast,13.2 µM
same,GI50,SR leukemia,1.48 µM
same,TGI,SR leukemia,4.43 µM
same,GI50,SW-620 colon,1.79 µM
same,TGI,SW-620 colon,4.04 µM
same,GI50,KM12 colon,1.87 µM
same,TGI,KM12 colon,4.01 µM
same,GI50,SF-268 CNS,3.66 µM
same,TGI,SF-268 CNS,14.6 µM
same,GI50,IGROV1 ovarian,2.76 µM
same,TGI,IGROV1 ovarian,10 µM
same,GI50,PC-3 prostate,4.28 µM
same,TGI,PC-3 prostate,16.9 µM
same,GI50,HT29 colon,2.27 µM
same,TGI,HT29 colon,4.9 µM
same,GI50,NCI-H460 lung,1.94 µM
same,TGI,NCI-H460 lung,4.58 µM
same,GI50,HOP-62 NSCLC,2.41 µM
same,TGI,HOP-62 NSCLC,7.39 µM
same,GI50,U251 CNS,1.49 µM
same,TGI,U251 CNS,2.82 µM
same,GI50,NCI-H522 lung,1.77 µM
same,TGI,NCI-H522 lung,4.12 µM
same,GI50,OVCAR-3 ovarian,2.09 µM
same,TGI,OVCAR-3 ovarian,4.73 µM
same,GI50,SK-MEL-28 melanoma,8.3 µM
same,TGI,SK-MEL-28 melanoma,20.5 µM
same,GI50,DU-145 prostate,3.35 µM
same,TGI,DU-145 prostate,11.4 µM
same,GI50,SNB-19 CNS,4.26 µM
same,TGI,SNB-19 CNS,16 µM
same,GI50,SN12C renal,1.86 µM
same,TGI,SN12C renal,4.15 µM
same,GI50,T-47D breast,3.57 µM
same,TGI,T-47D breast,15.8 µM
same,GI50,TK-10 renal,3.29 µM
same,TGI,TK-10 renal,11.9 µM
same,GI50,RPMI-8226 leukemia,2.3 µM
same,TGI,RPMI-8226 leukemia,6.84 µM
same,GI50,MALME-3M melanoma,10.8 µM
same,TGI,MALME-3M melanoma,22.7 µM
same,GI50,SF-295 CNS,4.13 µM
same,TGI,SF-295 CNS,16.1 µM
same,GI50,HOP-92 NSCLC,3.29 µM
same,TGI,HOP-92 NSCLC,16 µM
same,GI50,MDA-MB-435,7.18 µM
same,TGI,MDA-MB-435,20.1 µM
same,GI50,LOX IMVI melanoma,1.65 µM
same,TGI,LOX IMVI melanoma,3.02 µM
same,GI50,OVCAR-5 ovarian,2.2 µM
same,TGI,OVCAR-5 ovarian,5.99 µM
same,GI50,OVCAR-8 ovarian,2.62 µM
same,TGI,OVCAR-8 ovarian,8.33 µM
same,GI50,UO-31 renal,1.53 µM
same,TGI,UO-31 renal,3.05 µM
same,GI50,EKVX NSCLC,9.86 µM
same,TGI,EKVX NSCLC,21.8 µM
same,GI50,UACC-257 melanoma,11.9 µM
same,TGI,UACC-257 melanoma,24.5 µM
same,GI50,A498 renal,11.4 µM
same,TGI,A498 renal,24.1 µM
same,GI50,A549 NSCLC,2.67 µM
same,TGI,A549 NSCLC,8.9 µM
same,GI50,SK-OV-3 ovarian,12.9 µM
same,TGI,SK-OV-3 ovarian,26 µM
same,GI50,CCRF-CEM leukemia,3.07 µM
same,TGI,CCRF-CEM leukemia,11.1 µM
same,GI50,CAKI-1 renal,4.24 µM
same,TGI,CAKI-1 renal,16.2 µM
same,GI50,NCI-H226 lung,2.47 µM
same,TGI,NCI-H226 lung,6.96 µM
same,GI50,M14 melanoma,6.83 µM
same,TGI,M14 melanoma,21.3 µM
same,GI50,HL-60(TB) leukemia,2.64 µM
same,TGI,HL-60(TB) leukemia,17.2 µM
same,GI50,MOLT-4 leukemia,1.93 µM
same,TGI,MOLT-4 leukemia,5 µM
same,GI50,K-562 leukemia,1.85 µM
same,TGI,K-562 leukemia,5.09 µM
same,GI50,HCT-116 colon,1.52 µM
same,TGI,HCT-116 colon,3.02 µM
same,GI50,NCI-H23 lung,3.22 µM
same,TGI,NCI-H23 lung,12.7 µM
same,GI50,SF-539 CNS,1.74 µM
same,TGI,SF-539 CNS,3.21 µM
same,GI50,MCF7 breast,2.89 µM
same,TGI,MCF7 breast,11.3 µM
same,GI50,UACC-62 melanoma,3.64 µM
same,TGI,UACC-62 melanoma,15.3 µM
